Reference: patent US20120214798A1, “Novel Ethanediamone Hepcidine Antagonists” (VIFOR (INTERNATIONAL) AG, priority 2009, published 2012)

target: T1, human ferroportin (Homo sapiens, UniProt Q9NP59); assay: Ferroportin internalization assay (inhibition of hepcidin-induced internalization of Fpn, MDCK-FPN-HaloTag cells); type: cell-based; conditions: 100 nM hepcidin
T1 construct: expressed in transfected cells
T1 sequence (Q9NP59 1-571): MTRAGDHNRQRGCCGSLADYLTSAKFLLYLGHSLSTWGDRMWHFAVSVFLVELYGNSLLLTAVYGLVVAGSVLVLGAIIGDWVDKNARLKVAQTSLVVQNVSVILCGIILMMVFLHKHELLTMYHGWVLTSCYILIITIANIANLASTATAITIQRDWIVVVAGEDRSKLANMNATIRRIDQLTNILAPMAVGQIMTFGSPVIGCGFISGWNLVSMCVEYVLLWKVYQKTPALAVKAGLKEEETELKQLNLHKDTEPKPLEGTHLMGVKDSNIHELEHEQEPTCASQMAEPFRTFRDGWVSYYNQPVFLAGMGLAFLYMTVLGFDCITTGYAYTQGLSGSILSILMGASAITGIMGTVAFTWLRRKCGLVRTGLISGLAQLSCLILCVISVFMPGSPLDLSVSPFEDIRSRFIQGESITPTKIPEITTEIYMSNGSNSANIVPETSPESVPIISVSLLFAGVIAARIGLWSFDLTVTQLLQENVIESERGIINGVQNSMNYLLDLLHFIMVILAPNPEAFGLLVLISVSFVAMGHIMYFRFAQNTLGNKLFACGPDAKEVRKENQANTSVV
Method: The hepcidin-antagonistic action of the ethanediamine compounds of the present invention was determined by means of the “ferroportin internalization assay” described in the following.
Organic compounds of low molecular weight which counteract the biological actions of hepcidin on its receptor, the iron exporter ferroportin (Fpn), were identified on the basis of their ability to inhibit hepcidin-induced internalization of Fpn in living cells. For this purpose, a stable cell line (Madin-Darby canine kidney, MDCK) was produced which constitutively expresses human ferroportin fused recombinantly at its C terminus with a fluorescent reporter protein (HaloTag®, Promega Corp.). The internalization of Fpn was monitored by labelling these cells with fluorescent ligands (HaloTag®-TMR, tetramethylrhodamine) which join covalently on to the HaloTag reporter gene fused with the Fpn. […] Optimized image analysis algorithms were used to ascertain the cell surface and to quantify the corresponding membrane fluorescence associated with the Fpn-HaloTag fusion protein. This assay allows a quantitative image-based analysis in order to quickly evaluate compounds which can block hepcidin-induced internalization of Fpn. This assay is a direct in vitro pendant of the in vivo action mechanism proposed for medicament candidates and is therefore suitable as an initial assay with a high throughput for identifying compounds which counteract the action of hepcidin on its receptor ferroportin.
• 7,500 cells per well (MDCK-FPN-HaloTag) were transinoculated in 50 μl of DMEM medium (Dulbeccos Modified Eagle Medium with 10% foetal bovine serum (FBS), which contained 1% penicillin, 1% streptomycin and 450 μg/ml of G-418) in microtitre plates with 384 wells (384 Cell carrier plates, Perkin Elmer, cat. no. 6007430), followed by incubation overnight at 37° C./5% CO2. • The volume of the medium was reduced to 10 μl, and 10 μl of 5 μM HaloTag-TMR ligands (Promega, cat. no. G 8251) were added in DMEM medium in order to stain the Fpn-HaloTag fusion protein. • 15 min incubation at 37° C./5% CO2 • The HaloTag-TMR ligand was removed and the cells were washed with fresh DMEM medium and the volume was reduced to 20 μl of DMEM medium. • 3 μl per well of a solution of the test compound (dissolved DMSO) were added ([…]). • 7 μl of […] hepcidin (Peptides International, cat. no. PLP-4392-s, 100 μM stock solution diluted in water in DMEM medium) were added per well up to a final hepcidin concentration of 100 nM. • The cells were incubated overnight at 37° C./5% CO2. • The cells were fixed by adding paraformaldehyde (PFA, Electron Microscopy Sciences, cat. no. 15710-S) directly to the cells up to a final concentration of 4%, followed by incubation at room temperature for 15-20 minutes. • The PFA solution was removed and the cells were washed with PBS (phosphate-buffered saline solution), in each case 30 μl remaining in the plate. • 20 μl of Draq5 (Biostatus, cat. no. DR 51000) were added up to a final concentration of 2.5 μM in order to stain the cell nuclei, and the plates were sealed with a foil plate seal. • The plates were analysed with the Opera Plate Imager (Opera Confocal Plate Imager, Perkin Elmer) with 7 images per well; 440 ms exposure time per image, […] focal point height.

| SMILES | I [%] (median inhibition [%] at 10 μm substance conc.) |
| --- | --- |
| Fc1ccc(C(CN2CCN(c3cnccn3)CC2)NCc2ccccn2)cc1 (stereo not drawn) [Example 1, [1-(4-Fluoro-phenyl)-2-(2,3,5,6-tetrahydro-[1,2′]bipyrazinyl-4-yl)-ethyl]-pyridin-2-ylmethyl-amine] | >50 |
| O=C(C1CCCO1)N1CCN(CC(NCc2ccccn2)c2ccc(F)cc2)CC1 (stereo not drawn) [Example 2, (4-{2-(4-Fluoro-phenyl)-2-[(pyridin-2-ylmethyl)-amino]-ethyl}-piperazin-1-yl)-(tetrahydro-furan-2-yl)-methanone] | <50 |
| O=C(C1CCCO1)N1CCN(CC(NCc2ccccn2)c2ccccc2)CC1 (stereo not drawn) [Example 3, (4-{2-Phenyl-2-[(pyridin-2-ylmethyl)-amino]-ethyl}-piperazin-1-yl)-(tetrahydro-furan-2-yl)-methanone] | <50 |
| COCCN1CCN(C(CN2CCC(N3CCCCC3)CC2)c2ccccc2)CC1 (stereo not drawn) [Example 4] | >50 |
| c1ccc(C(CN2CCC(N3CCCCC3)CC2)NCCN2CCOCC2)cc1 (stereo not drawn) [Example 5] | <50 |
| COc1ccc(CNC(CN2CCC(N3CCCCC3)CC2)c2ccccc2)cc1 (stereo not drawn) [Example 6] | <50 |
